Data published in patent US20100120701A1, “Compositions and Methods For Engineering Probiotic Yeast” (Glycosyn, Inc., priority 2008, published 2010).

Tests used:
[1] = test system: calicivirus diarrhea; assay: Calicivirus diarrhea in breastfed infants by milk oligosaccharide level; assay type: in vivo, human; conditions: 93 nursing children consuming milk with high amounts; Poisson regression, P=0.012
Protocol: Milk samples were obtained weeks 2-5 postpartum from 93 Mexican mothers; the mothers and infants were followed from birth up to 2 yr postpartum. The clinical histories of the infants were recorded prospectively, and concentrations of individual oligosaccharides in these milk samples were measured. The most common oligosaccharides in maternal milk were those that were fucosylated, comprising 73% (50%-92%) of total oligosaccharide. Of these, 2′FL, the oligosaccharide homolog of the Lewis H-2 epitope, was the most common in the milks of all mothers. The mean concentration of 2′FL in milk was 3854±108 nmol/mL (34% of total fucosylated oligosaccharides), but varied greatly among mothers according to their Lewis blood group type.
Thus, human milk containing high levels of specific oligosaccharides are associated with decreased risk of pathogen-specific diarrhea and diarrhea overall. […] Because both the oligosaccharide and the high-molecular-weight glycans that share the same glycan epitope are synthesized by the same fucosyltransferase, the relationship between the oligosaccharide expression in milk and decreased risk in the infant reflects the synthetic capacity of the mother for both the free oligosaccharide and the homologous glycan. Specific human milk oligosaccharides protect breastfed children from disease by inhibiting binding of pathogens to the child's intestinal receptors.

[2] = test system: Campylobacter jejuni; assay: C. jejuni binding to CHO cells transfected with a human α(1,2)-fucosyltransferase gene; assay type: cell-based; conditions: CHO cells overexpressing H-2 antigen

CC(=O)N[C@H]1[C@H](O[C@H]2[C@@H](O)[C@@H](CO)O[C@@H](O[C@H]3[C@H](O)[C@@H](O)C(O)O[C@@H]3CO)[C@@H]2O)O[C@H](CO)[C@@H](O[C@@H]2O[C@@H](C)[C@@H](O)[C@@H](O)[C@@H]2O)[C@@H]1O[C@@H]1O[C@H](CO)[C@H](O)[C@H](O)[C@H]1O[C@@H]1O[C@@H](C)[C@@H](O)[C@@H](O)[C@@H]1O (some centres unmarked) [LDFH-I]
protection against calicivirus diarrhea [1]: associated with protection

B1: UEA I: ligand (lectin) that binds to H-2 (protein, UniProt P22972 1-243, looked up)
Anti-H(O) lectin 1: SDDLSFKFKNFSQNGKDLSFQGDASVIETGVLQLNKVGNNLPDETGGIARYIAPIHIWNCNTGEVASFITSFSFFMETSANPKAATDGLTFFLAPPDSPLRRAGGYFGLFEDTKDNDSSYQTVAVEFDTIGSPVNFDDPGFPHIGIDVNRVKSINAERWNKRYGLNNVANVEIIYEASSKTLTASLTYPSDQTSISVTSIVDLKEILPEWVSVGFSGGTYIGRQATHEVLNWYFTSNLINTNS
inhibition of C. jejuni binding to transfected CHO cells [2]: inhibited
